The source of these data is paper PMC4033315 (Journal of medicinal chemistry, 2013).

One test deals with α7 nAChR (Rattus norvegicus, UniProt Q05941). The class given is cell-based.
Another test addresses α4β2 nAChR (Rattus norvegicus, UniProt P09483+P12390). It is filed as cell-based.
In test [1] the target is α6/α3β2β3 nAChR (α6/α3 chimera) (Rattus norvegicus, UniProt P04757+P12390+P12391+P43143). The class given is cell-based.
Test [2] has as its target α9α10 nAChR (Rattus norvegicus, UniProt P43144+Q9JLB5). It is filed as cell-based.
For another test, the target named is α2β2 nAChR (Rattus norvegicus, UniProt P12389+P12390). The class given is cell-based.
α2β2 nAChR, sequence (P12389 28-511 limits assumed): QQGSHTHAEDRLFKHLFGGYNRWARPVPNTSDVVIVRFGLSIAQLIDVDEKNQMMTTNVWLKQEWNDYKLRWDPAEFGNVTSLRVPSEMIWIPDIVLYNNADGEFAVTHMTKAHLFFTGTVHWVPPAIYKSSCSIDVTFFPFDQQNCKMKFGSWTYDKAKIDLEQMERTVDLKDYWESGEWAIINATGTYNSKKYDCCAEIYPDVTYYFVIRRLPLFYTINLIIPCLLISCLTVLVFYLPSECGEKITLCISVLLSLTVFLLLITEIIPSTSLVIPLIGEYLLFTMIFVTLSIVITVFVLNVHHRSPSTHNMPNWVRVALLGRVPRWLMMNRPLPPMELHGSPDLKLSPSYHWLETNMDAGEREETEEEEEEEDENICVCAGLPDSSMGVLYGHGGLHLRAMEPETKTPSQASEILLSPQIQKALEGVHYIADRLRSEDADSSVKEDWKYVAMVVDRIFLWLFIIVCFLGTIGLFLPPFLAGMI
α2β2 nAChR, sequence (P12390 25-500 limits assumed): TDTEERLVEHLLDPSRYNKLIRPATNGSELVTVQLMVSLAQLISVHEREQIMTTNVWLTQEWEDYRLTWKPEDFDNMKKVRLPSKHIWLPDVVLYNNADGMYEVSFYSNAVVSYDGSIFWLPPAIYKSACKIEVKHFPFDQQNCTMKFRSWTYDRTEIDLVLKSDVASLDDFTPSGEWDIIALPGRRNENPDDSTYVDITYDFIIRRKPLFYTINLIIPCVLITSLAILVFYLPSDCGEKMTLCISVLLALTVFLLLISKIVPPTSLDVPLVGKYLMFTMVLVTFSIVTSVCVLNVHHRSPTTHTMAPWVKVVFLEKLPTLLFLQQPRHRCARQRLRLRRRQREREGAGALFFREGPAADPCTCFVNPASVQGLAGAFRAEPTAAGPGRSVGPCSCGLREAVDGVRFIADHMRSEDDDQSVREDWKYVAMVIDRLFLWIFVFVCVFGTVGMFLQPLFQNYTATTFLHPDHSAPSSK
Test [3] has as its target α3β2 nAChR (Rattus norvegicus, UniProt P04757+P12390). The class given is cell-based.
The next test concerns the target α4β4 nAChR (Rattus norvegicus, UniProt P09483+P12392). It is filed as cell-based.
In a further test the test system is α6/α3β4 nAChR. To be noted: cited from earlier work.
In test [4] the test system is α9α10 nAChR. Particulars: cited from earlier work.
Another test has as its system α6/α3β2β3 nAChR. To be noted: cited from earlier work.
The subject of test [5] is α3β2 nAChR. Particulars: cited from earlier work.

α4β4 nAChR, sequence (P09483 31-630 limits assumed): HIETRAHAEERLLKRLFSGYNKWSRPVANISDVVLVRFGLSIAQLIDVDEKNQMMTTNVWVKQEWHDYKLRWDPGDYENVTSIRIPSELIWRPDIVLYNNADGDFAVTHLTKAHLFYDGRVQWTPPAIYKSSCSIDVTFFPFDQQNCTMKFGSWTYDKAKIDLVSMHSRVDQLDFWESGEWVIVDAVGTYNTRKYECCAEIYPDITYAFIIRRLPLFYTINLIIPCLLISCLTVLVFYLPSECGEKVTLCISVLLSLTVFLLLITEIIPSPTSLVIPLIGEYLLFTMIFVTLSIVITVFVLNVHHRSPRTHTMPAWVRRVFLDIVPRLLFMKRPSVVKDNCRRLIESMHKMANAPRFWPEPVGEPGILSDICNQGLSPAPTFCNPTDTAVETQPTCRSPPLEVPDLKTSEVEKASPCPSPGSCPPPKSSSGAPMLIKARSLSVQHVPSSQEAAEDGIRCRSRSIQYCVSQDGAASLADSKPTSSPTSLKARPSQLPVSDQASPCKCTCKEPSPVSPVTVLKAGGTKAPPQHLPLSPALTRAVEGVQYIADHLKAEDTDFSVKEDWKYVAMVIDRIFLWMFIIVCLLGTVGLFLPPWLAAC
α4β4 nAChR, sequence (P12392 22-495 limits assumed): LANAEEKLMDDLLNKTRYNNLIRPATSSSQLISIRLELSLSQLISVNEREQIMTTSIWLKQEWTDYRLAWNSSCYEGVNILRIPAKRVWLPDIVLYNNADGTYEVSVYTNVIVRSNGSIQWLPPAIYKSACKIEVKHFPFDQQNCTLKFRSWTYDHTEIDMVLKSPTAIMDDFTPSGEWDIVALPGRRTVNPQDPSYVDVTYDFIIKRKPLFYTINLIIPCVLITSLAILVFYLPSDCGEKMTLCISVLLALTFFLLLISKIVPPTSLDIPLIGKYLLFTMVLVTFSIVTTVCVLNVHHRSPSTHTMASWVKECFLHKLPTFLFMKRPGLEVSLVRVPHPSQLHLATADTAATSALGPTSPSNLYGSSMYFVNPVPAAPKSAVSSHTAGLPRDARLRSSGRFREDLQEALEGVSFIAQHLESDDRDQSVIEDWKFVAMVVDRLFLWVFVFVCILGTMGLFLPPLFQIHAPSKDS
α3β2 nAChR (Rattus norvegicus, UniProt P04757+P12390), sequence (P04757 26-499 limits assumed): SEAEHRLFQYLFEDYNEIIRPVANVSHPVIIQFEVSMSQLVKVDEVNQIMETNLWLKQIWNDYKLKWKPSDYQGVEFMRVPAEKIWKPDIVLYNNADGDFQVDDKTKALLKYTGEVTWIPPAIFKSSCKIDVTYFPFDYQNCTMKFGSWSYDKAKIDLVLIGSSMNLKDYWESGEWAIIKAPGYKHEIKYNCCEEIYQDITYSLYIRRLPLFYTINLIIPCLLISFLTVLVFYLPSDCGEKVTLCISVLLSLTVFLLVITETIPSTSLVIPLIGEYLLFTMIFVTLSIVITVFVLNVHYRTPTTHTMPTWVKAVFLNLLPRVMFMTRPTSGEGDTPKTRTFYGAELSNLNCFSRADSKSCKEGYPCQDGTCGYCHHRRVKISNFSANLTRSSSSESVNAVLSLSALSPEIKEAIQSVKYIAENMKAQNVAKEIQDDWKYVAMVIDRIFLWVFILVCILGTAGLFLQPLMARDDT
α3β2 nAChR (Rattus norvegicus, UniProt P04757+P12390), sequence (P12390 25-500 limits assumed): as the sequence (P12390 25-500 limits assumed) above
α9α10 nAChR (Rattus norvegicus, UniProt P43144+Q9JLB5), sequence (P43144 26-479 limits assumed): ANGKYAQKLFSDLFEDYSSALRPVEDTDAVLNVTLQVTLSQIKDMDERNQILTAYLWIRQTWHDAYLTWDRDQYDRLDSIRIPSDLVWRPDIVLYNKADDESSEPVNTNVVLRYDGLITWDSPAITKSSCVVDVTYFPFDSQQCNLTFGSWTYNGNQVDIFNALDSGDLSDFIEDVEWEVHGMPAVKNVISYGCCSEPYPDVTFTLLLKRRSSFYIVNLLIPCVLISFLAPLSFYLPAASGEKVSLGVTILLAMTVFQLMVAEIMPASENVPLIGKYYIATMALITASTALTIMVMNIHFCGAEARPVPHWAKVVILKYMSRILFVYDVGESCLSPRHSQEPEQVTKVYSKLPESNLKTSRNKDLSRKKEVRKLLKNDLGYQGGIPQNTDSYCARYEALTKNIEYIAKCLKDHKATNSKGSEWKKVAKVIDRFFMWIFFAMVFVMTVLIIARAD
α9α10 nAChR (Rattus norvegicus, UniProt P43144+Q9JLB5), sequence (Q9JLB5 25-447 limits assumed): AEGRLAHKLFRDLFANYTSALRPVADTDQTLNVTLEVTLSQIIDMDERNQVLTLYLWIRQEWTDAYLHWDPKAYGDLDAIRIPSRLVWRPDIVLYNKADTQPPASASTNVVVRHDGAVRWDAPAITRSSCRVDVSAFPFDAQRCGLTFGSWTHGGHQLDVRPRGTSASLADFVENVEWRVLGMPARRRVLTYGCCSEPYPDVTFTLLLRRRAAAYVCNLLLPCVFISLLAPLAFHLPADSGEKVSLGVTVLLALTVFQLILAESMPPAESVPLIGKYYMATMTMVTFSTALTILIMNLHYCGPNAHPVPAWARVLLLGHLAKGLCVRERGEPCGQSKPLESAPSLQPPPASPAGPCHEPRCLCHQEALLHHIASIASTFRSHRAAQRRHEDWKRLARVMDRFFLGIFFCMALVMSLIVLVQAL
α7 nAChR, sequence (Q05941 23-502 limits assumed): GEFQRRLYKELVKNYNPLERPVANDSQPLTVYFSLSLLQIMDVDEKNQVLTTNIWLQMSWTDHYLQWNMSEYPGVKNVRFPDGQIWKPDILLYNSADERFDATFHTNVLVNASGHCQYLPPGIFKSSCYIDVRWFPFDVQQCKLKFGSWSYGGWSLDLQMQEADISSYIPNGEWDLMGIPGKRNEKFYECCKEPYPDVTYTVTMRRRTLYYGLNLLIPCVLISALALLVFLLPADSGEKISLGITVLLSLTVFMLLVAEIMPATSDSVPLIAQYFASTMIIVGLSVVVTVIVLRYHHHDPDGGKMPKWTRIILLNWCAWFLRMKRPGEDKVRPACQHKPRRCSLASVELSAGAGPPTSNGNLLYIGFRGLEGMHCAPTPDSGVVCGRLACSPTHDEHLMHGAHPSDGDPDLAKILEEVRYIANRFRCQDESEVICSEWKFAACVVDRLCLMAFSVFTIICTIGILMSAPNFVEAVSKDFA
α4β2 nAChR, sequence (P09483 31-630 limits assumed): as the sequence (P09483 31-630 limits assumed) above
α4β2 nAChR, sequence (P12390 25-500 limits assumed): as the sequence (P12390 25-500 limits assumed) above

For `CC[C@H](C)[C@@H]1NC(=O)[C@@H]2CCCN2C(=O)[C@H](CO)NC(=O)[C@H](CCSC)NC(=O)[C@H](C)NC(=O)[C@H](CO)NC(=O)[C@@H]2CSSC[C@H](NC(=O)CN)C(=O)N[C@@H](CSSC[C@@H](C(N)=O)NC1=O)C(=O)N[C@@H](CO)C(=O)N[C@@H](Cc1c[nH]cn1)C(=O)N1CCC[C@H]1C(=O)N[C@@H](C(C)C)C(=O)N2` [TxID], the “block at 10^−5 M” value on α7 nAChR is on record as “c less than 50% block at 10^−5 M. All receptors are rat except for α1β1δε, which is mouse”; on α4β2 nAChR, “c less than 50% block at 10^−5 M. All receptors are rat except for α1β1δε, which is mouse”; in test [1] it was “c less than 50% block at 10^−5 M. All receptors are rat except for α1β1δε, which is mouse”; on α9α10 nAChR [2], “c less than 50% block at 10^−5 M. All receptors are rat except for α1β1δε, which is mouse”; on α2β2 nAChR, “c less than 50% block at 10^−5 M. All receptors are rat except for α1β1δε, which is mouse”; at α3β2 nAChR [3], “c less than 50% block at 10^−5 M. All receptors are rat except for α1β1δε, which is mouse”. In addition, at α4β4 nAChR, the “block at 10^−5 M” value was “c less than 50% block at 10^−5 M. All receptors are rat except for α1β1δε, which is mouse”. Moreover, the “block of ACh-evoked currents” value at α7 nAChR, on α9α10 nAChR [2], at α3β2 nAChR [3] and on α4β4 nAChR was “no inhibition” throughout.
For Vc1.1, the IC50 (usually the concentration at which inhibition is half-maximal) in the test with α6/α3β4 nAChR was 980 nM; with α9α10 nAChR [4], 19 nM; in the test on α6/α3β2β3 nAChR it was 140 nM; in the test with α3β2 nAChR [5], 7300 nM.
